In PubChem BioAssay AID2060340 (Molecular Pharmacology Branch, DTP, NCI, 2025):

Tested on: 349418-098-R-PDC spheroids, viability, % test/control
Test: Anticancer human tumor 349418-098-R-PDC patient-derived lung adenocarcinoma cell line growth inhibition [IpAb]
Settings: spheroids with HUVEC and MSC; for IC50: curve of first compound; for viability, T/C: stronger effect = lower value; active = viability on the fitted dose curve at most 10% of control; inactive = the rest
From the text: Combinatorial screen of targeted agents with ipatasertib and abemaciclib in multi-cell type tumor spheroids
A high-throughput screen of multi-cell type tumor spheroids was designed to identify active combinations of targeted small molecules and ipatasertib or abemaciclib. Complex spheroids include a stromal component modeled by human endothelial cells (HUVEC) and fibroblasts modeled by human mesenchymal stem cells (MSCs). The concentration ranges selected for each drug and investigational agent were based upon clinically achievable concentrations if the clinical Cmax of the agent was known.
Compounds. The drugs and investigational agents: ipatasertib (NSC767898), abemaciclib(NSC768073), selumetinib (NSC741078), trametinib (758246), adavosertib (NSC754352), everolimus (NSC733504), sapanisertib (NSC764658), vemurafenib (NSC761431), venetoclax (NSC766270), copanlisib (NSC809693), apelisib (NSC765974), palbociblib (NSC758247), vemurafenib (NSC761431), dabrafenib (NSC764134), ravoxertinib (NSC781343), BMS-387032 (NSC767048), sotorasib (NSC818433), talazoparib (NSC767125) and afursertib (NSC778305), were obtained from the National Cancer Institute (NCI) Developmental Therapeutics Program Chemical Repository. The FDA-approved anticancer drug set is available from the NCI Developmental Therapeutics Program. […] The stock solutions were prepared in dimethyl sulfoxide (DMSO, Sigma-Aldrich, St. Louis, MO, cat. D2650) at 800-fold the tested concentration and stored at -70 degrees C prior to their use. All drugs and investigational agents were tested over a range starting from a high concentration at or near the clinical Cmax and decreasing in half-log increments. If the clinical Cmax for an agent had not been determined, the highest concentration tested was 10 microM.
NCI60 Cell Culture. NCI60 cell lines were obtained from the NCI Developmental Therapeutics Program Tumor Repository. For each lot of cells, the Repository performed Applied Biosystems AmpFLSTR Identifiler testing with PCR amplification to confirm consistency with the published Identifier STR profile for each cell line. Cells were kept in continuous culture for no more than 20 passages. The optimal seeding densities for each of the cell lines at each time point assessed were determined prior to performing the concentration response studies. Briefly, the NCI60 human tumor lines were grown as monolayers in RPMI 1640 medium supplemented with 10% FBS and 2 mmol/L L-glutamine.
An additional 9 lines were from the NCI60 cell line panel including MDA-MB-231 breast carcinoma, MDA-MB-468 breast carcinoma, MCF7 breast carcinoma, Hs578T breast carcinoma, MALME-3M melanoma, SK-MEL-2 melanoma, SK-OV-3 ovarian carcinoma, DU-145 prostate carcinoma, PC-3 prostate carcinoma, all cell lines along with major genetic alterations are listed on Table 2. Pooled donor human umbilical vein endothelial cells (HUVEC, Lonza, cat. CC-2519) and human mesenchymal stem cells (hMSC, Lonza, cat. PT-2501) were purchased from Lonza (Walkersville, MD).
PDMR cell lines were grown in complete medium (DC medium): Dulbecco's modified Eagle's medium (DMEM)/F12 supplemented with 5% fetal bovine serum (FBS), 2 mM L-glutamine, 100 U/mL penicillin and 100 µg/ml streptomycin, 0.4 µg/ml hydrocortisone, 10 ng/ml epidermal growth factor (EGF) recombinant human protein, 24 µg/mL adenine, and 0.1 mg/mL primocin. During culture from frozen stock vials, PDMR cells were cultured in the same medium containing 10 µM Y-27632 (see Table 3). The PDCs were cultured in complete DMEM/F12 media without 10 microM Y-27632 dihydrochloride for at least two passages prior to the screen. The pooled donor HUVEC and hMSC were cultured in endothelial cell growth medium 2 (PromoCell, Heidelberg, Germany, cat. C-22011) and mesenchymal stem cell growth medium 2 (PromoCell, cat. C-28009), respectively. For all experiments, HUVEC and hMSC were used at passages </=5.
[…]
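Note: spheroids exposed to compounds for 7 days.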

C=CCn1c(=O)c2cnc(Nc3ccc(N4CCN(C)CC4)cc3)nc2n1-c1cccc(C(C)(C)O)n1 + CC(C)NCC(C(=O)N1CCN(c2ncnc3c2C(C)CC3O)CC1)c1ccc(Cl)cc1
active: viability, T/C (second compound 0.1 µM, first compound 1 µM) 4.54% | viability, T/C (second compound 0.1 µM, first compound 3.16 µM) 4.88% | viability, T/C (second compound 0.1 µM, first compound 10 µM) 5.17% | viability, T/C (second compound 0.316 µM, first compound 0.316 µM) 7.25% | viability, T/C (second compound 0.316 µM, first compound 1 µM) 4.35% | viability, T/C (second compound 0.316 µM, first compound 3.16 µM) 4.32% | viability, T/C (second compound 0.316 µM, first compound 10 µM) 4.08% | viability, T/C (second compound 1 µM, first compound 0.316 µM) 5.45% | viability, T/C (second compound 1 µM, first compound 1 µM) 3.39% | viability, T/C (second compound 1 µM, first compound 3.16 µM) 3.96% | viability, T/C (second compound 1 µM, first compound 10 µM) 3.54% | viability, T/C (second compound 3.16 µM, first compound 0.1 µM) 12.3% | viability, T/C (second compound 3.16 µM, first compound 0.316 µM) 4.49% | viability, T/C (second compound 3.16 µM, first compound 1 µM) 2.96% | viability, T/C (second compound 3.16 µM, first compound 3.16 µM) 3.95% | viability, T/C (second compound 3.16 µM, first compound 10 µM) 3.35% | viability, T/C (second compound 10 µM, first compound 0.0316 µM) 9.2% | viability, T/C (second compound 10 µM, first compound 0.1 µM) 7.89% | viability, T/C (second compound 10 µM, first compound 0.316 µM) 4.37% | viability, T/C (second compound 10 µM, first compound 1 µM) 2.99% | viability, T/C (second compound 10 µM, first compound 3.16 µM) 3.49% | viability, T/C (second compound 10 µM, first compound 10 µM) 3.4%
84.5 nM: IC50 (second compound 0.316 µM)
< 31.6 nM: IC50 (second compound 1 µM) | IC50 (second compound 3.16 µM) | IC50 (second compound 10 µM)
154 nM: IC50 (second compound 0.1 µM)
inactive: viability, T/C (second compound 0.1 µM, first compound 0.0316 µM) 96.2% | viability, T/C (second compound 0.1 µM, first compound 0.1 µM) 73% | viability, T/C (second compound 0.1 µM, first compound 0.316 µM) 11.5% | viability, T/C (second compound 0.316 µM, first compound 0.0316 µM) 82% | viability, T/C (second compound 0.316 µM, first compound 0.1 µM) 44.5% | viability, T/C (second compound 1 µM, first compound 0.0316 µM) 29.7% | viability, T/C (second compound 1 µM, first compound 0.1 µM) 22.2% | viability, T/C (second compound 3.16 µM, first compound 0.0316 µM) 15.3%

Cn1cnc2c(F)c(Nc3ccc(Br)cc3Cl)c(C(=O)NOCCO)cc21 + CC(C)NCC(C(=O)N1CCN(c2ncnc3c2C(C)CC3O)CC1)c1ccc(Cl)cc1
active: viability, T/C (second compound 0.1 µM, first compound 3 µM) 8.1% | viability, T/C (second compound 0.316 µM, first compound 3 µM) 7.06% | viability, T/C (second compound 1 µM, first compound 0.0949 µM) 10.3% | viability, T/C (second compound 1 µM, first compound 0.3 µM) 7.91% | viability, T/C (second compound 1 µM, first compound 0.949 µM) 6.83% | viability, T/C (second compound 1 µM, first compound 3 µM) 5.21% | viability, T/C (second compound 3.16 µM, first compound 0.00949 µM) 7.25% | viability, T/C (second compound 3.16 µM, first compound 0.03 µM) 6.51% | viability, T/C (second compound 3.16 µM, first compound 0.0949 µM) 5.52% | viability, T/C (second compound 3.16 µM, first compound 0.3 µM) 5.93% | viability, T/C (second compound 3.16 µM, first compound 0.949 µM) 4.94% | viability, T/C (second compound 3.16 µM, first compound 3 µM) 3.63% | viability, T/C (second compound 10 µM, first compound 0.00949 µM) 5.59% | viability, T/C (second compound 10 µM, first compound 0.03 µM) 5.09% | viability, T/C (second compound 10 µM, first compound 0.0949 µM) 4.7% | viability, T/C (second compound 10 µM, first compound 0.3 µM) 3.85% | viability, T/C (second compound 10 µM, first compound 0.949 µM) 3.8% | viability, T/C (second compound 10 µM, first compound 3 µM) 3.14%
< 9.49 nM: IC50 (second compound 0.1 µM) | IC50 (second compound 0.316 µM) | IC50 (second compound 1 µM) | IC50 (second compound 3.16 µM) | IC50 (second compound 10 µM)
inactive: viability, T/C (second compound 0.1 µM, first compound 0.00949 µM) 46.7% | viability, T/C (second compound 0.1 µM, first compound 0.03 µM) 38.4% | viability, T/C (second compound 0.1 µM, first compound 0.0949 µM) 41.8% | viability, T/C (second compound 0.1 µM, first compound 0.3 µM) 33.6% | viability, T/C (second compound 0.1 µM, first compound 0.949 µM) 18.8% | viability, T/C (second compound 0.316 µM, first compound 0.00949 µM) 25.7% | viability, T/C (second compound 0.316 µM, first compound 0.03 µM) 24.6% | viability, T/C (second compound 0.316 µM, first compound 0.0949 µM) 21.4% | viability, T/C (second compound 0.316 µM, first compound 0.3 µM) 18.8% | viability, T/C (second compound 0.316 µM, first compound 0.949 µM) 10.2% | viability, T/C (second compound 1 µM, first compound 0.00949 µM) 12.5% | viability, T/C (second compound 1 µM, first compound 0.03 µM) 10.5%
